# What was measured:
# purple nutsedge = experiment: Test B pre/postemergence purple nutsedge; format: in vivo, Cyperus rotundus
# In short: (§1)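 Herbicidal effect was estimated by eye on a ten-point control scale after plants spent twelve to sixteen days in a greenhouse following soil or foliar treatment. Foliar sprays targeted plants at one to four leaves; all doses were formulated in a non-phytotoxic solvent with surfactant.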
# rice = experiment: Test B flood test rice; format: in vivo, Oryza sativa
# In short: (§2)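 Flood test on plants grown to the 2-leaf stage; treated plants kept in greenhouse twelve to sixteen days, then visually rated against controls on a 0 (no effect) to 10 (complete control) scale.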
# surinam grass = experiment: Test B pre/postemergence surinam grass; format: in vivo, Brachiaria decumbens
# In short: as §1
# corn = experiment: Test B pre/postemergence corn; format: in vivo, Zea mays
# In short: as §1
# smallflower flatsedge = experiment: Test B flood test smallflower flatsedge; format: in vivo, Cyperus difformis
# In short: as §2
# velvetleaf = experiment: Test B pre/postemergence velvetleaf; format: in vivo, Abutilon theophrasti
# In short: as §1
# duck salad = experiment: Test B flood test duck salad; format: in vivo, Heteranthera limosa
# In short: as §2
# giant foxtail = experiment: Test B pre/postemergence giant foxtail; format: in vivo, Setaria faberii
# In short: as §1
# morningglory = experiment: Test B pre/postemergence morningglory; format: in vivo, Ipomoea hederacea
# In short: as §1
# blackgrass = experiment: Test B pre/postemergence blackgrass; format: in vivo, Alopecurus myosuroides
# In short: as §1
# soybean = experiment: Test B pre/postemergence soybean; format: in vivo, Glycine max
# In short: as §1
# bamyardgrass = experiment: Test B flood test barnyardgrass; format: in vivo, Echinochloa crus-galli
# In short: as §2
# sugar beet = experiment: Test B pre/postemergence sugar beet; format: in vivo, Beta vulgaris
# In short: as §1
# bedstraw = experiment: Test B pre/postemergence bedstraw; format: in vivo, Galium aparine
# In short: as §1
# pigweed = experiment: Test B pre/postemergence pigweed; format: in vivo, Amaranthus retroflexus
# In short: as §1
# rape = experiment: Test B pre/postemergence rape; format: in vivo, Brassica napus
# In short: as §1
# [1] = Postemergence, Rate 62 g/ha, scale 0 to 10, 0 is no effect, 10 is complete control
# [2] = Postemergence, Rate 250 g/ha, scale 0 to 10, 0 no effect, 10 complete control
# [3] = Preemergence, Rate 31 g/ha, visual rating, scale 0 to 10 (0 no effect, 10 complete control)
# [4] = Preemergence, Rate 62 g/ha, scale 0 to 10, 0 is no effect, 10 is complete control
# [5] = Preemergence, Rate 125 g/ha, scale 0 to 10 (0 no effect, 10 complete control)
# [6] = Preemergence, Rate 250 g/ha, scale of 0 to 10 where 0 is no effect and 10 is complete control
# [7] = Rate 31 g/ha, Postemergence, scale 0 to 10
# [8] = Rate 125 g/ha, Postemergence, scale 0 to 10, 0 no effect, 10 complete control
# [9] = Rate 125 g/ha, Postemergence section (flood test species), scale 0 to 10, 0 no effect, 10 complete control
# [10] = Rate 500 g/ha, Postemergence section of Table B, 0 to 10 scale (0 no effect, 10 complete control)
# [11] = flood test, listed under Postemergence, Rate 250 g/ha, scale 0 to 10, 0 no effect, 10 complete control
smiles,measurement,setting,value
CCN(C(=O)n1oc(=O)n(-c2ccc(C)cc2C)c1=O)C1CCCCC1 [Compound 26],Nutsedge plant response rating,purple nutsedge; [1],0
same,Nutsedge plant response rating,purple nutsedge; [2],0
same,Nutsedge plant response rating,purple nutsedge; [3],0
same,"Plant response rating, Nutsedge",purple nutsedge; [4],0
same,"Plant response rating, Nutsedge",purple nutsedge; [5],0
same,"Plant response rating, Nutsedge",purple nutsedge; [6],0
same,Nutsedge plant response rating,purple nutsedge; [7],0
same,Nutsedge plant response rating,purple nutsedge; [8],0
same,Rice plant response rating,rice; [1],0
same,Rice plant response rating,rice; [9],0
same,Rice plant response rating,rice; [10],0
same,Rice plant response rating,rice; [11],0
same,B. signalgrass plant response rating,surinam grass; [1],0
same,B. signalgrass plant response rating,surinam grass; [2],0
same,B. signalgrass plant response rating,surinam grass; [3],0
same,"Plant response rating, B. signalgrass",surinam grass; [4],0
same,"Plant response rating, B. signalgrass",surinam grass; [5],0
same,"Plant response rating, B. signalgrass",surinam grass; [6],2
same,B. signalgrass plant response rating,surinam grass; [7],0
same,B. signalgrass plant response rating,surinam grass; [8],0
same,Corn plant response rating,corn; [1],0
same,Corn plant response rating,corn; [2],0
same,Corn plant response rating,corn; [3],0
same,"Plant response rating, Corn",corn; [4],0
same,"Plant response rating, Corn",corn; [5],0
same,"Plant response rating, Corn",corn; [6],0
same,Corn plant response rating,corn; [7],0
same,Corn plant response rating,corn; [8],0
same,S. Flatsedge plant response rating,smallflower flatsedge; [1],0
same,S. Flatsedge plant response rating,smallflower flatsedge; [9],0
same,S. Flatsedge plant response rating,smallflower flatsedge; [11],0
same,Velvetleaf plant response rating,velvetleaf; [1],0
same,Velvetleaf plant response rating,velvetleaf; [2],0
same,Velvetleaf plant response rating,velvetleaf; [3],0
same,"Plant response rating, Velvetleaf",velvetleaf; [4],0
same,"Plant response rating, Velvetleaf",velvetleaf; [5],0
same,"Plant response rating, Velvetleaf",velvetleaf; [6],0
same,Velvetleaf plant response rating,velvetleaf; [8],0
same,Ducksalad plant response rating,duck salad; [1],0
same,Ducksalad plant response rating,duck salad; [9],0
same,Ducksalad plant response rating,duck salad; [10],0
same,Ducksalad plant response rating,duck salad; [11],0
same,Giant foxtail plant response rating,giant foxtail; [1],0
same,Giant foxtail plant response rating,giant foxtail; [2],0
same,Giant foxtail plant response rating,giant foxtail; [3],0
same,"Plant response rating, Giant foxtail",giant foxtail; [4],0
same,"Plant response rating, Giant foxtail",giant foxtail; [5],0
same,"Plant response rating, Giant foxtail",giant foxtail; [6],4
same,Giant foxtail plant response rating,giant foxtail; [7],0
same,Giant foxtail plant response rating,giant foxtail; [8],0
same,Morningglory plant response rating,morningglory; [1],1
same,Morningglory plant response rating,morningglory; [2],3
same,Morningglory plant response rating,morningglory; [3],0
same,"Plant response rating, Morningglory",morningglory; [4],0
same,"Plant response rating, Morningglory",morningglory; [5],0
same,"Plant response rating, Morningglory",morningglory; [6],0
same,Morningglory plant response rating,morningglory; [7],0
same,Morningglory plant response rating,morningglory; [8],1
same,Blackgrass plant response rating,blackgrass; [1],0
same,Blackgrass plant response rating,blackgrass; [2],0
same,Blackgrass plant response rating,blackgrass; [3],0
same,"Plant response rating, Blackgrass",blackgrass; [4],0
same,"Plant response rating, Blackgrass",blackgrass; [5],0
same,"Plant response rating, Blackgrass",blackgrass; [6],0
same,Blackgrass plant response rating,blackgrass; [7],0
same,Blackgrass plant response rating,blackgrass; [8],0
same,Soybean plant response rating,soybean; [1],1
same,Soybean plant response rating,soybean; [2],2
same,Soybean plant response rating,soybean; [3],0
same,"Plant response rating, Soybean",soybean; [4],0
same,"Plant response rating, Soybean",soybean; [5],0
same,"Plant response rating, Soybean",soybean; [6],0
same,Soybean plant response rating,soybean; [8],1
same,Barnyardgrass plant response rating,bamyardgrass; [1],0
same,Barnyardgrass plant response rating,bamyardgrass; [9],0
same,Barnyardgrass plant response rating,bamyardgrass; [10],0
same,Barnyardgrass plant response rating,bamyardgrass; [11],0
same,Sugarbeets plant response rating,sugar beet; [1],0
same,Sugarbeets plant response rating,sugar beet; [2],0
same,Sugarbeets plant response rating,sugar beet; [3],0
same,"Plant response rating, Sugarbeets",sugar beet; [4],0
same,"Plant response rating, Sugarbeets",sugar beet; [5],0
same,"Plant response rating, Sugarbeets",sugar beet; [6],0
same,Sugarbeets plant response rating,sugar beet; [8],0
same,Bedstraw plant response rating,bedstraw; [1],0
same,Bedstraw plant response rating,bedstraw; [2],0
same,Bedstraw plant response rating,bedstraw; [3],0
same,"Plant response rating, Bedstraw",bedstraw; [4],0
same,"Plant response rating, Bedstraw",bedstraw; [5],0
same,"Plant response rating, Bedstraw",bedstraw; [6],0
same,Bedstraw plant response rating,bedstraw; [7],0
same,Bedstraw plant response rating,bedstraw; [8],0
same,Redroot pigweed plant response rating,pigweed; [1],0
same,Redroot pigweed plant response rating,pigweed; [2],0
same,Redroot pigweed plant response rating,pigweed; [3],0
same,"Plant response rating, Redroot pigweed",pigweed; [4],0
same,"Plant response rating, Redroot pigweed",pigweed; [5],0
same,"Plant response rating, Redroot pigweed",pigweed; [6],0
same,Redroot pigweed plant response rating,pigweed; [7],0
same,Redroot pigweed plant response rating,pigweed; [8],0
same,Rape plant response rating,rape; [1],0
same,Rape plant response rating,rape; [2],0
same,Rape plant response rating,rape; [3],0
same,"Plant response rating, Rape",rape; [4],0
same,"Plant response rating, Rape",rape; [5],0
same,"Plant response rating, Rape",rape; [6],0
same,Rape plant response rating,rape; [7],0
same,Rape plant response rating,rape; [8],0

# — patent US6737383B1, “Herbicidal oxadiazolidines” (priority 1999, dated 2004)
